Test results taken from patent publication US20060073121A1, “Spray formulation for pungency enhancement in Capsicum” (priority 2004, published 2006).

System: Capsicum frutescens and Capsicum annuum
Assay: Comparative number of folds enhancement of phenyl propanoid intermediates and capsaicinoids by optimized elicitors
Assay type: in vivo
Method: (§1) The flowers of C. frutescens were sprayed with water, which was taken as control. The fruits of C. frutescens which received different treatments were harvested on 25, 30, 35 and 40 days after anthesis and extracted with 1:2 (w/v) of acetonitrile followed by in-vacuo evaporation and resuspension with 1 ml methanol. The extracted samples were centrifuged at 4000 rpm for 10 minutes. The samples were subjected to High Performance Liquid Chromatography for quantification of phenyl proponoid intermediates and major Capsaicinoids. The mobile phase of linear gradient of 0-100 % acetonitrile in water with pH 3.0 for 35 minutes and 100% was maintained for 2 minutes at 35th minute. The detection was at 236 nm and flow rate was maintained at 1 ml/min. C-18 column of 250×4.6 mm and 5-μm diameter was used. The reagent used was of HPLC grade. The intermediates of phenyl proponoid pathway (Phenylalanine, Cinnamic acid, Coumaric acid, Caffeic acid, Ferulic acid and Vanillylamine) and two major Capsaicinoids (Capsaicin and Dihydrdcapsaicin) were purchased from Sigma Co. A standard stock solution of 1 mg/ml was prepared in methanol. 5 and 10 μl of standards and samples was injected to HPLC for three times and the mean value was calculated. Standard deviation of samples was calculated according to Tukey's method.
as §1, with “C. annuum var Arka Lohit” for “C. frutescens”, “of Acetonitrile” for “of acetonitrile”, “of 0-100%” for “of 0-100 %”, “and Dihydrocapsaicin)” for “and Dihydrdcapsaicin)”

[1] = 35 days after anthesis, optimized concentration: biotic 0.5-1% w/v, abiotic 2.5 μM

Row | Compound | number of folds enhancement of Caffeic Acid [1] | number of folds enhancement of Capsaicin [1] | number of folds enhancement of Cinnamic Acid [1] | number of folds enhancement of Coumaric Acid [1] | number of folds enhancement of Dihydrocapsaicin [1] | number of folds enhancement of Ferulic Acid [1] | number of folds enhancement of Phenylalanine [1] | number of folds enhancement of Vanillylamine [1] | number of folds enhancement of Caffeic Acid (in vivo) | number of folds enhancement of Capsaicin (in vivo) | number of folds enhancement of Cinnamic Acid (in vivo) | number of folds enhancement of Coumaric Acid (in vivo) | number of folds enhancement of Dihydrocapsaicin (in vivo) | number of folds enhancement of Ferulic Acid (in vivo) | number of folds enhancement of Phenylalanine (in vivo) | number of folds enhancement of Vanillylamine (in vivo)
1 | CC/C=C\CC1C(=O)CCC1CC(=O)OC (stereo not shown) [Methyl Jasmonate] | 1.63-3.79 folds | 1.65-1.88 folds | 1.42-3.79 folds | 1.25-3.51 folds | 1.41-1.68 folds | 1.59-2.43 folds | 1.36-1.52 folds | 1.68-1.77 folds |  |  |  |  |  |  |  | 
2 | O=C([O-])c1ccccc1O.[Na+] [Salicylic Acid sodium salt, Salicylic acid sodium salt] |  |  |  |  |  |  |  |  | 1.45-1.75 folds | 1.26-1.58 folds | 1.36-2.50 folds | 1.28-1.67 folds | 1.11-1.32 folds | 1.11-1.28 folds | 1.02-1.44 folds | 1.26-1.28 folds
